Entries after “also recorded” stand apart in the source; their conditions may differ.
What was measured:
[1] = Measurement on changes in body weight; type: in vivo, mouse; conditions: initial body weights and at 6 weeks; vs negative control group (Con)
Procedure: 12 of 6-week-old male C57BL/6N mice (Orientbio) were adapted to the environment for 2 weeks. Then, they were divided into total 3 groups, the negative control group (Con), the positive control group (MXD) and oleuropein group (Ole), and used for test. The environment for animals were maintained at 21±2.0° C. and relative humidity 50±5% under 12 hours light/dark cycle. They were fed a food (chow) and water with free access.
In order to verify an effect for promoting hair growth, 8-week-old mice in telogen were used for test. Hairs of their back were removed using a clipper for mouse. They were subcutaneously injected with 0.1 mL of sample at the part, everyday. Before subcutaneous injection, the test substance oleuropein (0.8 mg/0.1 mL) and the control drug minoxidil were dissolved in corn oil to use. The negative control group was subcutaneously injected with only vehicle (corn oil). The application was performed once, every P.M. 4:00 for 6 weeks. […] To assess level of hair growth, the hair length was measured using ruler.
Body weight was measured weekly during entire test period, from the point before the subcutaneous injection of the hair restorers to the end point of the subcutaneous injection of the hair restorers.

hair follicles = experiment: Histological analysis of the back skin (hair growth cycle, hair follicles); type: in vivo, mouse; conditions: for Anagen ratio / anagen phases observed (number of cases): 4 animals per group
Text: At 6 weeks after subcutaneous injection, mice were sacrificed. Their back skin tissue samples were isolated using scissors and forceps and fixed by formalin. After dehydration with serial alcohol and xylene, the tissues were paraffinized. Paraffinized tissues were sectioned using a microtomb in a thickness of 5 μm and used alcohol and xylene to remove paraffin. Then, the tissues were stained with hematoxyline/eosin, followed by observation of histological changes in hair follicles under an optical microscope. The hair growth cycles in the tissues were pathologically diagnosed by specialists, and quantity and diameter of hair follicle were measured under an optical microscope.

Wnt10b = experiment: RT-PCR gene expression in back skin tissue, Wnt10b; type: in vivo, mouse; conditions: 6 weeks s.c., compared to the negative control group
Procedure: (§1) After adding 1 mL of Trizol agent to 50-100 mg of test animal skin tissues, the mixture was homogenized and centrifuged at 12,000×g for 10 min at 4° C. The supernatant was transferred to a new tube to remove fat layer. Then, 200 μl of chloroform was added to the tube, followed by vortexing. The same procedure was repeated twice and then the supernatant was transferred to a new tube, followed by addition of isopropanol and the supernatant at 1:1 ratio. The mixture was vigorously shaken 10 times and then incubated for 10 min at room temperature, followed by centrifugation at 12,000×g for 10 min at 4° C. to remove the supernatant. After adding 1 mL of 70% ethanol to the remaining pellet, it was centrifuged at 7,500×g for 5 min at 4° C. After removing the ethanol, the RNA pellet contained in the tube was dried for 5 min at 4° C. and dissolved in nuclease-free water. The RNA sample concentration was measured at a wavelength of 260 nm and 280 nm using a UV/VIS spectrophotometer (Beckman coulter, DU730) and the integrity of RNA sample was verified by agarose gel electrophoresis.
(§2) The RNA sample obtained was trasnscribed using oligo dT primer and SuperScript reverse transcriptase (GIBCO BRL, Gaithersburg, Md., USA) to synthesize cDNA. The PCR amplification was performed using the cDNA as templates and primers complementary to cDNA 5′ and 3′ flanking sequence. […]

C57BL/6N mice = experiment: Hair re-growth in hair-removed telogen mice, subcutaneous injection for 6 weeks (visual observation, hair length); type: in vivo, mouse; conditions: for hair growth state (visual): s.c. 0.8 mg/0.1 mL in corn oil daily
β-catenin [2] = experiment: Immunohistochemical test on skin tissue, β-catenin; type: in vivo, mouse; conditions: 6 weeks s.c., FIG. 4
Procedure: (§3) In order to verify expression amounts of IGF1 and β-catenin related with hair growth in skin tissue, each primary antibody to IGF1 and β-catenin was diluted to 1:50, added to tissue sections, and incubated for 12 hours at room temperature. The primary antibody was diluted with the mixture of 0.1% normal goat serum (Vector Laboratories Inc.) and 0.3% Triton X-100 (Sigma) in 0.1 M phosphate buffer solution (PB). The tissue sections were washed twice at room temperature for 15 minutes in 0.1M PB. Then, secondary antibody [biotinylated anti-rabbit IgG (Vector Laboratories Inc.)] was diluted to 1:200, added to the tissue sections, and incubated for 1 hour at room temperature. The tissue sections were washed twice at room temperature for 15 minutes in 0.1M PB, soaked in peroxidase-labeled ABC solution, and incubated for 1 hour at room temperature. The tissue sections were washed twice at room temperature for 15 minutes in 0.1M PB. Then, the tissue sections were reacted for 5 min with a solution in which 30 mg of 3-3′ diaminobenzidine was dissolved in 150 ml of 0.1M PB, added with concentration of 0.005% of hydrogen peroxide, and reacted for 5 min to occur color reaction. The tissue sections were washed several times at room temperature in 0.1M PB. […]

[3] = test system: FZDR (frizzled receptor 1); experiment: RT-PCR gene expression in back skin tissue, FZDR; type: in vivo, mouse; conditions: 6 weeks s.c., compared to the negative control group
Procedure: as §1, §2

[4] = test system: HGF (hepatocyte growth factor); experiment: RT-PCR gene expression in back skin tissue, HGF; type: in vivo, mouse; conditions: 6 weeks s.c., compared to the negative control group, FIG. 5
Procedure: as §1, §2

β-catenin [5] = experiment: RT-PCR gene expression in back skin tissue, β-catenin; type: in vivo, mouse; conditions: 6 weeks s.c., compared to the negative control group
Procedure: as §1, §2

[6] = test system: GSK3β (glycogen synthase kinase 3β); experiment: RT-PCR gene expression in back skin tissue, GSK3β; type: in vivo, mouse; conditions: 6 weeks s.c., compared to the negative control group
Procedure: as §1, §2

[7] = test system: IGF1 (insulin-like growth factor 1); experiment: RT-PCR gene expression in back skin tissue, IGF1; type: in vivo, mouse; conditions: 6 weeks s.c., compared to the negative control group, FIG. 5
Procedure: as §1, §2

Axin = experiment: RT-PCR gene expression in back skin tissue, Axin; type: in vivo, mouse; conditions: 6 weeks s.c., compared to the negative control group
Procedure: as §1, §2

[8] = cited from earlier work
[9] = test system: VEGF (vascular endothelial growth factor); experiment: RT-PCR gene expression in back skin tissue, VEGF; type: in vivo, mouse; conditions: 6 weeks s.c., compared to the negative control group, FIG. 5
Procedure: as §1, §2

[10] = test system: KGF (keratocyte growth factor); experiment: RT-PCR gene expression in back skin tissue, KGF; type: in vivo, mouse; conditions: 6 weeks s.c., compared to the negative control group, FIG. 5
Procedure: as §1, §2

IGF1 = experiment: Immunohistochemical test on skin tissue, IGF1; type: in vivo, mouse; conditions: 6 weeks s.c., FIG. 4
Procedure: as §3

[11] = test system: LRP5 (low-density lipoprotein receptor-related protein 5); experiment: RT-PCR gene expression in back skin tissue, LRP5; type: in vivo, mouse; conditions: 6 weeks s.c., compared to the negative control group
Procedure: as §1, §2

Compound: Nc1cc(N2CCCCC2)nc(N)[n+]1[O-] [minoxidil, reference compound]
- body weight, difference between groups [1]: no significant differences
- Anagen ratio (hair follicles; back skin at 6 weeks): 25%
- anagen phases observed (number of cases) (hair follicles; back skin at 6 weeks): 1 case

Compound: C/C=C1/[C@H](O[C@@H]2O[C@H](CO)[C@@H](O)[C@H](O)[C@H]2O)OC=C(C(=O)OC)[C@H]1CC(=O)OCCc1ccc(O)c(O)c1 [oleuropein]
- gene expression level of Wnt10b (Wnt10b): significantly increased
- effect for promoting hair growth (visual) compared with minoxidil (C57BL/6N mice; 6 weeks s.c. injection, FIG. 1): more excellent effect for promoting hair growth than that of the minoxidil
- effect for stimulating hair growth (hair length) compared with minoxidil (C57BL/6N mice; 6 weeks s.c. injection, FIG. 2): excellent effect for stimulating hair growth than that of the minoxidil
- hair length (C57BL/6N mice; at 3 weeks, p<0.05): significantly increased
- hair growth state (visual) (C57BL/6N mice; at 3 weeks): hairs were grown
- hair length, increase compared to the negative control group (C57BL/6N mice; at 6 weeks): 62%
- hair growth state (visual) (C57BL/6N mice; at 6 weeks): hairs were vigorously grown
- effect for increasing protein expression level of β-catenin compared with minoxidil (β-catenin [2]): more excellent effect
- protein expression level of β-catenin (β-catenin [2]; vs the negative group): much more highly detected
- gene expression level of FZDR (frizzled receptor 1) [3]: significantly increased
- gene expression level of HGF [4]: significantly increased
- gene expression level of β-catenin (β-catenin [5]): significantly increased
- gene expression level of GSK3β [6]: significantly decreased
- gene expression level of IGF1 [7]: significantly increased
- gene expression level of Axin (Axin): significantly decreased
- toxicity ([8]; mouse treated with 1 g/kg (body weight) for 7 days): no toxicity
- LD50 ([8]; through various experiments): may not be calculated
- gene expression level of VEGF [9]: significantly increased
- gene expression level of KGF [10]: significantly increased
- effect for increasing protein expression level of IGF1 compared with minoxidil (IGF1): more excellent effect
- protein expression level of IGF1 (IGF1; vs the negative group): much more highly detected
- gene expression level of LRP5 [11]: significantly increased
- hair follicle length / appearance (hair follicles; back skin at 6 weeks): became longer and they were expressed into skin
- Histological diagnosis of hair growth cycle, individual animals (Animal ID 1-4) (hair follicles; back skin at 6 weeks after s.c. injection): Telogen; also recorded: Anagen
- Anagen ratio (hair follicles; back skin at 6 weeks): 50%
- anagen phases observed (number of cases) (hair follicles; back skin at 6 weeks): 2 case
- diameter of the hair follicles (hair follicles; image analysis, compared to the negative control group): significantly increased
- number of hair follicles (hair follicles; optical microscope 40× magnification, compared to the negative control group, FIG. 3): significantly increased

Source: US9636289B2, “Composition for preventing or treating hair loss or promoting hair growth comprising secoiridoid glucoside derivatives” (priority 2012, dated 2017)
